Measurements: US10022449B2, “Synergistic antiviral composition and use thereof” (priority 2009, dated 2018)

Tests used:
[1] = tested on: influenza A/PR/8/34 virus; assay: Mean weight of mice infected with lethal influenza virus, treatment starting 24 hours post infection (Example 2); format: in vivo, C57B16 mice; conditions: treatment from 24 hours post infection; single actives: first seven days; combination: from day 3 onwards (pmax<0,004), t-test
[2] = tested on: influenza A/PR/8/34 virus; assay: Survival of mice infected with lethal influenza virus, treatment starting 48 hours post infection (Example 1); format: in vivo, C57B16 mice; conditions: lethal dose (10x LD50) i.n.; treatment from 48 hours post infection, twice daily; iota-carrageenan 1200 μg/ml 25 μl per nostril i.n.; TAMIFLU 10 mg/kg/d per os; 10 mice per group
Procedure: (§1) 40 C57B16 mice were infected with a lethal dose (10× LD50) of influenza A/PR/8/34 virus by intranasal instillation (i.n.) without anaesthesia. After infection of the nasal cavity the virus spreads in the respiratory tract and finally causes a lethal pneumonia in mice. This model mimics the natural influenza infection in humans via the respiratory tract that sometimes causes severe conditions.
The mice were divided into four groups of 10 mice each. 48 hours post infection the mice were treated twice daily i.n. without anaesthesia, wherein the first group was treated with a placebo (25 μl 0.5% aqueous NaCl-solution per nostril) as a negative control and the second group was treated solely with 25 μl per nostril of a aqueous iota-carrageenan polymer solution at a concentration of 1200 μg/ml. Group three and four were fed with 10 mg/kg/d of TAMIFLU® per os, wherein the third group additionally received the iota-carrageenan polymer intranasally at the above concentration whereas the fourth group received the intranasal placebo treatment in addition to the oral Tamiflu® administration. […] The survival of the animals was determined daily as a surrogate parameter for health. The difference in the number of surviving animals was evaluated using a log-rank test.

[3] = tested on: influenza A/PR/8/34 virus; assay: Survival of influenza-infected mice, iota-carrageenan and oseltamivir, treatment starting 48 hours post infection (Example 3); format: in vivo; conditions: treatment from 48 hours post infection, twice daily; oseltamivir 5 mg/kg/d orally; iota-carrageenan 1200 μg/ml i.n. (120 μg per day); 10 mice per group
Description: as §1
The infection of the mice was done as described in Example 1. The mice were divided into four groups of 10 mice each. 48 hours post infection the mice were treated twice daily i.n. without anaesthesia, wherein the first group was treated with a placebo (25 μl 0.5% aqueous NaCl-solution per nostril) as a negative control, the second group was treated orally with oseltamivir at a dosage of 5 mg/kg/d, the third group was treated with 25 μl per nostril of an aqueous iota-carrageenan polymer solution at a concentration of 1200 μg/ml, and the fourth group was treated with a combination of iota-carrageenan and oseltamivir twice daily, wherein oseltamivir was administered orally at a dosage of 5 mg/kg/d and the total amount of iota-carrageenan administered intranasally was 100 μl corresponding to an amount of 120 μg per day. The survival of the animals was determined daily as a surrogate parameter for health. The difference in the number of surviving animals was evaluated using a log-rank test.

influenza virus = conditions: cited from earlier work; for reduction of median time until detection of symptom alleviation: individuals of the YOPI group (young, old, pregnant, immunocompromised); for reduction of median time until detectable symptom alleviation: non-risk adults group (not YOPI)
[4] = cited from earlier work
[5] = tested on: influenza A/PR/8/34 virus; assay: Survival of influenza-infected mice, iota-/kappa-carrageenan and zanamivir, treatment starting 48 hours post infection (Example 4); format: in vivo; conditions: treatment from 48 hours post infection; zanamivir 0.5 mg/kg/d intranasally; carrageenan polymer 120 μg per day intranasally; 20 mice per group

SMILES	weight loss compared to placebo treatment [1]	survival of mice (survivors out of 10) [2]	survival of mice (survivors out of 10) [3]	reduction of median time until detection of symptom alleviation (influenza virus) [days]	reduction of median time until detectable symptom alleviation (influenza virus) [days]	Tmax ([4]; in vivo) [h]	absolute bioavailability ([4]; orally administered, on average)	survival of mice (survivors out of 20) [5]
CCOC(=O)C1=C[C@@H](OC(CC)CC)[C@H](NC(C)=O)[C@@H](N)C1 [TAMIFLU®, oseltamivir phosphate]	failed to provide a significant benefit with regard to weight loss	3/10						
CCOC(=O)C1=C[C@@H](OC(CC)CC)[C@H](NC(C)=O)[C@@H](N)C1 [oseltamivir]			3/10	0.74	0.55			
CC(=O)N[C@H]1[C@H]([C@H](O)[C@H](O)CO)OC(C(=O)O)=C[C@@H]1N=C(N)N [zanamivir]				0.98	0.57	1 to 2	about 2%	7/20
